Where “and” joins values, the source holds several entries; their conditions need not be identical. Equal entries are not always repeated. Structures can show the parent of a compound that is named as a salt.
Conditions: instrument: DT, single field, calibrated with ESI Low Concentration Tuning Mix (Agilent)

| SMILES | collision cross section (N2) ([M+H]+) | collision cross section (N2) ([M+Na-2H]-) | collision cross section (N2) ([M+Na]+) | collision cross section (N2) ([M-H]-) | collision cross section (N2) ([M+K]+) |
| --- | --- | --- | --- | --- | --- |
| CC(=O)NC1C(OP(=O)(O)OP(=O)(O)OCC2OC(n3ccc(=O)[nH]c3=O)C(O)C2O)OC(CO)C(O)C1O (stereo unspecified) [URIDINE DIPHOSPHATE-N-ACETYLGALACTOSAMINE] | 216.2 Å² | 228.2 Å² | 218.1 Å² | 223.9 Å² |  |
| NCCCNCCCN [NORSPERMIDINE] | 127.6 Å² |  | 132.4 Å² |  |  |
| O=C(O)C1=CC(=O)[C@@H](O)[C@H](O)C1 [3-DEHYDROSHIKIMATE] |  |  | 149.1 Å² | 132 Å² |  |
| O=P(O)(O)OC1O[C@H](CO)[C@@H](O)[C@H](O)[C@H]1O (stereo partly specified) [GLUCOSE 1-PHOSPHATE] |  |  | 158.3 Å² | 148.7 Å² |  |
| O=C(O)C1CCCCN1 (stereo unspecified) [PIPECOLATE] | 127.7 Å² and 128 Å² |  | 138.8 Å² and 139.4 Å² | 128.3 Å² and 128.9 Å² |  |
| CSCC[C@H](NC(C)=O)C(=O)O [N-ACETYLMETHIONINE] |  |  | 150.1 Å² | 142.6 Å² |  |
| NCCCCNCCCN [SPERMIDINE] | 131.4 Å² and 131.6 Å² |  | 136.1 Å² and 136.5 Å² |  |  |
| O=C(O)/C=C/c1ccc(O)cc1 [4-COUMARATE] |  |  |  | 131.1 Å² |  |
| Nc1nc(=O)c2ncn([C@H]3C[C@H](O)[C@@H](COP(=O)(O)OP(=O)(O)O)O3)c2[nH]1 [DGDP] | 188.5 Å² | 177.5 Å² and 185.6 Å² | 185.2 Å² | 180.8 Å² |  |
| Cc1c[nH]c(=O)[nH]c1=O [THYMINE] | 122.1 Å² |  |  | 119 Å² |  |
| Cn1cnc(N)c2ncnc1-2 [3-METHYLADENINE] | 126.3 Å² |  |  |  |  |
| CC(=O)NC(Cc1ccccc1)C(=O)O (stereo unspecified) [N-ACETYLPHENYLALANINE] |  |  | 149.4 Å² | 146.9 Å² |  |
| NC(=O)c1ccc[n+]([C@@H]2O[C@H](COP(=O)([O-])O)[C@@H](O)[C@H]2O)c1 [NICOTINAMIDE MONONUCLEOTIDE] | 166 Å² |  |  |  |  |
| NC[C@H](O)c1ccc(O)cc1 [P-OCTOPAMINE] |  |  | 147.3 Å² |  |  |
| C[C@@H]1NCCc2cc(O)c(O)cc21 [SALSOLINOL] | 142.7 Å² |  |  | 139.4 Å² |  |
| OC[C@H]1O[C@@H](O[C@H]2[C@H](O)[C@@H](O)[C@H](O)O[C@@H]2CO)[C@H](O)[C@@H](O)[C@H]1O [LACTOSE] |  |  | 175.3 Å² | 176.9 Å² | 178.6 Å² |
| O=c1[nH]c(=O)c2ncn([C@@H]3O[C@H](CO)[C@@H](O)[C@H]3O)c2[nH]1 [XANTHOSINE] | 162 Å² | 161.9 Å² | 173.3 Å² | 158.3 Å² | 173 Å² |
| NCC[Se][Se]CCN [SELENOCYSTAMINE] | 135.6 Å² |  | 138.6 Å² |  |  |
| C[C@@H]1OC(O)[C@H](O)[C@H](O)[C@H]1O (stereo partly specified) [RHAMNOSE] |  |  | 142.6 Å² |  |  |
| C[N+](C)(C)C[C@H](O)CC(=O)[O-] [L-CARNITINE] | 132.9 Å² |  |  |  |  |
| NC(=O)[C@@H]1CCCN1C(=O)[C@H](Cc1cnc[nH]1)NC(=O)[C@@H]1CCC(=O)N1 [THYROTROPIN RELEASING HORMONE] | 179.2 Å² | 183.2 Å² | 182.4 Å² | 184.5 Å² |  |
| O=S(=O)(O)Oc1c[nH]c2ccccc12 [INDOXYL SULFATE] |  |  |  | 143.3 Å² |  |
| NC[C@H](O)CC[C@H](N)C(=O)O [5-HYDROXYLYSINE] | 134.9 Å² |  | 137.5 Å² | 134 Å² |  |

Source: the C3SDB collision cross section collection
